Source: patent publication US20240199577A1, “ACORAMIDIS ANALOGS FOR STABILIZING TRANSTHYRETIN AND INHIBITING TRANSTHYRETIN MISFOLDING” (Protego Biopharma, Inc., priority 2021, published 2024)
Blank lines part the entries; values can stand above or below the molecule they belong to.

What was measured:
[1] = In vitro rat liver S9 stability assay (formation of AG10); assay type: in vitro ADME; conditions: rat liver S9, 1 μM test compound, 37° C.
Procedure: The test compound was added to liver S9 and incubated at 37° C. in a water bath at a concentration of 1 μM. At each time point (0, 5, 10, 20, 30 and 60 min), stop solution (tolbutamide plus labetalol) was added to precipitate protein and mixed thoroughly. After centrifugation, an aliquot of supernatant was analyzed by LC-MS/MS. The percentage of formation of active agent was calculated at each time point.

[2] = Pharmacokinetic study in rat (plasma, CSF, brain); assay type: in vivo; conditions: male, Sprague-Dawley, oral dose of 40 mg/kg
Text: For a compound provided herein to be an effective TTR stabilizer drug to halt and/or prevent the ocular and cerebral TTR amyloid deposition TTR amyloidosis, it has to be able to penetrate into the brain and CSF (surrogate for eye penetration) and deliver a sufficient amount of TTR stabilizer to stop TTR dissociation. A pharmacokinetic study in rat is used to evaluate the compounds. Male Sprague-Dawley (SD) rats (200-220 g weight) are acclimated for at least 2 to 3 days before being placed on study. All animals will have access to certified rodent diet and water at libitum. […] For IV dosing, the test compound is administered via tail vein or indwelling cannula. For oral dosing, the test compound is administered by oral gavage. Blood and CSF samples are collected at selected timepoints. Blood collection is performed from saphenous vein or tail vein of each animal into polypropylene tubes at each timepoint. […] The weight of brain samples is recorded. […] Using a LC-MSMS method for the quantitative determination of test compound in biological matrixes, amount of test compound and active agent are measured in plasma and CSF at selected timepoints post-dosing and in brain at 24 hrs post dosing. Plasma concentration versus time data is analyzed by non-compartmental approaches using the Phoenix WinNonlin 6.3 software program. […]

[3] = tafamidis-treated FAP patients, cited from earlier work

Formation of AG10 at 60 min [1]: A (A is <25%)
SMILES: Cc1n[nH]c(C)c1CCCOc1cc(C(=O)OC2CCN(C)C2)ccc1F (centres unmarked) [Compound 2, 1-methylpyrrolidin-3-yl 3-(3-(3,5-dimethyl-1H-pyrazol-4-yl)propoxy)-4-fluorobenzoate]

Kp ([2]; CSF and plasma, over 24 hrs, read-out: CSF to plasma ratio over 24 hrs): ~0.009
Kp at 24 h ([2]; brain and plasma, at 24 hrs, read-out: brain to plasma ratio at 24 hrs): ~0.008
SMILES: Cc1n[nH]c(C)c1CCCOc1cc(C(=O)O)ccc1F [AG10, acoramidis]

SMILES: O=C(O)c1ccc2nc(-c3cc(Cl)cc(Cl)c3)oc2c1 [tafamidis]
tafamidis level in CSF relative to that in plasma ([3]; CSF): 2%
tafamidis/TTR stoechimetric ratio in CSF ([3]; CSF): ≤ 1
tafamidis/TTR stoechimetric ratio in plasma ([3]; plasma): 2.4
tafamidis level in vitreous relative to that in plasma ([3]; vitreous): 0.5%
tafamidis/TTR stoechimetric ratio in vitreous ([3]; vitreous): ≤ 1
